The text below walks through data of patent US20140261474A1, “METHODS FOR INHALATION OF SMOKE-FREE NICOTINE” (priority 2013, published 2014).

Where two headings read alike, the source gives them in different places.

Series [1] deals with healthy volunteers (two ex-smokers and one non-smoker). The conditions noted are these: in vivo.
A further series has as its system smokers. The conditions noted are these: nicotine containing droplets delivered to the alveolar region; cited from earlier work.
The conditions of series [2]: from cigarettes containing 6 to 11 mg of nicotine; cited from earlier work.

With `CN1CCCC1c1cccnc1.O=C(O)C(O)C(O)C(=O)O` (stereo not shown) [Nicotine Bitartrate, Nicotine bitartrate], the Adverse effects result in series [1] (pH 2.9) is given as “Slight”. Besides, in series [1] (pH 3), the “Comment (sensory perceptions and effects)” value is reported as “No taste, buzz”. Moreover, in series [1] (pH 3.2), the Adverse effects result was “Slight”; the “Comment (sensory perceptions and effects)” value is recorded as “No taste, buzz”; the “Presence/Intensity of “buzz”” value is on record as “None”.

For the compound `CN1CCC[C@H]1c1cccnc1` [nicotine, S-3-(1-methyl-2-pyrrolidinyl)pyridine], the craving for cigarettes entry with smokers was “very rapid and sustained reduction of craving for cigarettes”. Besides, the “nicotine the smoker typically absorbs” value in series [2] is 1 to 3 mg.
